Measured values reported in ChEMBL document CHEMBL3991601, “The target landscape of clinical kinase drugs” (Science, 2017).
Active and inactive are the calls of the source.

Assays:
[1] = target: Serine/threonine-protein kinase PAK 4 (Homo sapiens, UniProt O96013)
Ephrin type-A receptor 4 = Ephrin type-A receptor 4 (Homo sapiens, UniProt P54764)
[2] = target: T1, Serine/threonine-protein kinase TAO2 (Homo sapiens, UniProt Q9UL54)
T1 sequence (Q9UL54 whole entry): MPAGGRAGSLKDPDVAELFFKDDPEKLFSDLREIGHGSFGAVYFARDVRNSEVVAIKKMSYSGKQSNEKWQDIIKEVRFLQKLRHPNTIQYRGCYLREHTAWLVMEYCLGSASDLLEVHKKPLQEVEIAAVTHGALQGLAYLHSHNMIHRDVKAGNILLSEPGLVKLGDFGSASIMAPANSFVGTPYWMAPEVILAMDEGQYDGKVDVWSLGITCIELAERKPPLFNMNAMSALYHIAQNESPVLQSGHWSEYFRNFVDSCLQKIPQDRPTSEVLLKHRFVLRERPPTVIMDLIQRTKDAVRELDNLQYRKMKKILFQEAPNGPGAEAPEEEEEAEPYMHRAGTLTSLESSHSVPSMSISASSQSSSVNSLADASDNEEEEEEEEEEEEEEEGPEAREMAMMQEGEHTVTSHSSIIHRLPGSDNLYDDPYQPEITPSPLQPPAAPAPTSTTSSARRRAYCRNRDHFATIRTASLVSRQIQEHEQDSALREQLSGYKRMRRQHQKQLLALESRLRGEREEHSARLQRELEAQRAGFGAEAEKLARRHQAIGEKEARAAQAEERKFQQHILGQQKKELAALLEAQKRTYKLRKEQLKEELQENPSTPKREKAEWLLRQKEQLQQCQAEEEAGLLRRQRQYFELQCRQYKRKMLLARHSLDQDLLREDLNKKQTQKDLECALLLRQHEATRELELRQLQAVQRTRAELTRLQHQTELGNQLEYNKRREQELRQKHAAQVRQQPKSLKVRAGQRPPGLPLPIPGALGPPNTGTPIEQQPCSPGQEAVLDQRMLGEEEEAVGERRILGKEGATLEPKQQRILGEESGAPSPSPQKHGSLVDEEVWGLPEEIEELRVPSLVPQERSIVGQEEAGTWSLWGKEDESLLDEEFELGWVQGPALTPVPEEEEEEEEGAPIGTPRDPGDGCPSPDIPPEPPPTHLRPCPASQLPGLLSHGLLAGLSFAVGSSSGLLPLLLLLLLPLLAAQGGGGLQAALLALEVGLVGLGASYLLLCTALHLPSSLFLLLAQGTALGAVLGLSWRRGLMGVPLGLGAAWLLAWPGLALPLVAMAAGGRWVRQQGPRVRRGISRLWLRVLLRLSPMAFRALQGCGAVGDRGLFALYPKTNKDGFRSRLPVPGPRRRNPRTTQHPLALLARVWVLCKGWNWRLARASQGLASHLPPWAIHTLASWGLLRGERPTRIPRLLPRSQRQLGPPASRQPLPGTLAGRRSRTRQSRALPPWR

[3] = target: T2, Ferrochelatase, mitochondrial (Homo sapiens, UniProt P22830)
T2 sequence (P22830 whole entry): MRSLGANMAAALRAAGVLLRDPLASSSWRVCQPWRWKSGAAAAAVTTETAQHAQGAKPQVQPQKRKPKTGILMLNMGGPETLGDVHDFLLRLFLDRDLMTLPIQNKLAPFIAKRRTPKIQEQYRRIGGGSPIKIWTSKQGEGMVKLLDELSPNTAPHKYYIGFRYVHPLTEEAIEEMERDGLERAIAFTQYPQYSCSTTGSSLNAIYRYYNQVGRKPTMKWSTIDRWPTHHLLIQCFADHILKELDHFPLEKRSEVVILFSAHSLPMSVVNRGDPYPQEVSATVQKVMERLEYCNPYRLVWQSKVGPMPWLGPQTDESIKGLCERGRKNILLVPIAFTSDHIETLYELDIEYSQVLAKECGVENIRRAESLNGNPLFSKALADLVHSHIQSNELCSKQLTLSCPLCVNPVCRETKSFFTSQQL

Deoxycytidine kinase = Deoxycytidine kinase (Homo sapiens, UniProt P27707)
Deoxycytidine kinase, sequence (P27707 whole entry): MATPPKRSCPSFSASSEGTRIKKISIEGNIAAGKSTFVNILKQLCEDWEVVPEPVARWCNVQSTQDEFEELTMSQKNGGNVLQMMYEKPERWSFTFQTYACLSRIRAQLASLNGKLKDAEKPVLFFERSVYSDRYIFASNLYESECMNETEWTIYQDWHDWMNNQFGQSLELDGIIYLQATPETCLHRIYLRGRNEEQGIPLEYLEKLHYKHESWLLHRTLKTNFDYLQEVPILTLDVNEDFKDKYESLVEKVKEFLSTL

[4] = target: T3, Mitogen-activated protein kinase 15 (Homo sapiens, UniProt Q8TD08)
T3 sequence (Q8TD08 whole entry): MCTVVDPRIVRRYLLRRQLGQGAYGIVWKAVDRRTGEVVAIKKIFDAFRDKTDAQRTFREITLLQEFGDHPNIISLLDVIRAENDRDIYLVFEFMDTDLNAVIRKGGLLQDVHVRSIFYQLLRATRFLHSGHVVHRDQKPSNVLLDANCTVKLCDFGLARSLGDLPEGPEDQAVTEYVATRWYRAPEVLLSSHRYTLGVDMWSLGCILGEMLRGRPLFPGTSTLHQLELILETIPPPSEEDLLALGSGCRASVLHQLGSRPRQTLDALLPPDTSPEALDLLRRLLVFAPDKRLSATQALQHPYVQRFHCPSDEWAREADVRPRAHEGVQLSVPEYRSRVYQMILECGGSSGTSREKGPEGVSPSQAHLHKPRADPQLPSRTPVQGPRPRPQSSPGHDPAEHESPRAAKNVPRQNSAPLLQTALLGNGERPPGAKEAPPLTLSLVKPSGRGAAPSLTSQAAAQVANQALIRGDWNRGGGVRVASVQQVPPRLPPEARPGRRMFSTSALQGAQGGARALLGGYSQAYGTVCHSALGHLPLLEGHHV

[5] = target: Putative heat shock protein HSP 90-beta 2 (Homo sapiens, UniProt Q58FF8)
Putative heat shock protein HSP 90-beta 2, sequence (Q58FF8 whole entry): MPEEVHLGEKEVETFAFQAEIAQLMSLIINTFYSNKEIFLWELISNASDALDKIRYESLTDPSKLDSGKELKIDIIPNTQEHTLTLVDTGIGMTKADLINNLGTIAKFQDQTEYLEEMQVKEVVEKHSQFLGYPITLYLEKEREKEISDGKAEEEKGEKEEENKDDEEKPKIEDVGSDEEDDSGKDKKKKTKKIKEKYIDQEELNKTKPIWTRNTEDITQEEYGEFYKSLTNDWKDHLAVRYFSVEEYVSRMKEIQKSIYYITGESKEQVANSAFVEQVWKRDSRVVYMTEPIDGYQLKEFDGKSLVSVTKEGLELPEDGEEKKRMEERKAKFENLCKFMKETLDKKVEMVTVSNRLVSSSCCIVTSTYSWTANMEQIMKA

Actin-related protein 2 = Actin-related protein 2 (Homo sapiens, UniProt P61160)
Adenosine kinase = Adenosine kinase (Homo sapiens, UniProt P55263)
Adenosine kinase, sequence (P55263 whole entry): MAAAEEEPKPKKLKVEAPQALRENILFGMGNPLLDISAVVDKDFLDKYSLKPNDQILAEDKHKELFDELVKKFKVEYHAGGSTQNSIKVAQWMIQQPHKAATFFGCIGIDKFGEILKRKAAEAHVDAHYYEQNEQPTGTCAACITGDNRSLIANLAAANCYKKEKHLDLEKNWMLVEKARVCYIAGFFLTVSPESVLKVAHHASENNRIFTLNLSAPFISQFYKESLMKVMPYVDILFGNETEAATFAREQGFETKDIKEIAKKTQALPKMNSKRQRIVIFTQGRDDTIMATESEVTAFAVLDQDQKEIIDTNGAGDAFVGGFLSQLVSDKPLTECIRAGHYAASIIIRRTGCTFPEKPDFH

[6] = target: RAC-gamma serine/threonine-protein kinase (Homo sapiens, UniProt Q9Y243)
RAC-gamma serine/threonine-protein kinase, sequence (Q9Y243 whole entry): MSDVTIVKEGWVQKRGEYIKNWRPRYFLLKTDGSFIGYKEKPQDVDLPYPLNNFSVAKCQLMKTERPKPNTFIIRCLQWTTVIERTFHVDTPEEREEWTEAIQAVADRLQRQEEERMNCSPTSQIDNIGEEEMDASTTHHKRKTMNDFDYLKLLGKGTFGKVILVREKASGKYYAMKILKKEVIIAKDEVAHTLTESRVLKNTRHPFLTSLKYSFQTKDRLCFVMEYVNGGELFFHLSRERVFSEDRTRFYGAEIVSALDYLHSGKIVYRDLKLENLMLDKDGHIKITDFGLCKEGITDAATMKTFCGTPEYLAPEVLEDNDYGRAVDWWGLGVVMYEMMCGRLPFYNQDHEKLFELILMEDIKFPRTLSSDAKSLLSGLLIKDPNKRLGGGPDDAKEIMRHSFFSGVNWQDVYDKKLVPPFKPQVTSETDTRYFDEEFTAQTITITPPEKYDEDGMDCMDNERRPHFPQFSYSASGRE
Further: in the data inactive means no Kd found up to 30 µM.

Serine/threonine-protein kinase PAK 4, sequence (O96013 whole entry): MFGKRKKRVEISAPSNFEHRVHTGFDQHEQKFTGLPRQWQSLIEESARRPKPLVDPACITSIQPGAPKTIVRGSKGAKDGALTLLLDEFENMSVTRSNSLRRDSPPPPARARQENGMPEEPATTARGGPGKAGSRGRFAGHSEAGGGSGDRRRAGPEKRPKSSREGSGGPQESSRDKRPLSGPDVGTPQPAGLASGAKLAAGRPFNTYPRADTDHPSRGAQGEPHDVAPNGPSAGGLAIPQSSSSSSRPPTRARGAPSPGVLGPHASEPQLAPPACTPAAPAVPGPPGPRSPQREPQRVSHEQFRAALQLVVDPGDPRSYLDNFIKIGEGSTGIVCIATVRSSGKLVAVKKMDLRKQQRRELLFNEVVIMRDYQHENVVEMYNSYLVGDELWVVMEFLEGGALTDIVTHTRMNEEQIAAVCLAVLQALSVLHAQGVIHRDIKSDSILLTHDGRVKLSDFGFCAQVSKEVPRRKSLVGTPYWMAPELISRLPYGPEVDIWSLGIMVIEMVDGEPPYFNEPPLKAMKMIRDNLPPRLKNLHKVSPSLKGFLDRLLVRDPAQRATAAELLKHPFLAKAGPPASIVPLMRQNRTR
Ephrin type-A receptor 4, sequence (P54764 whole entry): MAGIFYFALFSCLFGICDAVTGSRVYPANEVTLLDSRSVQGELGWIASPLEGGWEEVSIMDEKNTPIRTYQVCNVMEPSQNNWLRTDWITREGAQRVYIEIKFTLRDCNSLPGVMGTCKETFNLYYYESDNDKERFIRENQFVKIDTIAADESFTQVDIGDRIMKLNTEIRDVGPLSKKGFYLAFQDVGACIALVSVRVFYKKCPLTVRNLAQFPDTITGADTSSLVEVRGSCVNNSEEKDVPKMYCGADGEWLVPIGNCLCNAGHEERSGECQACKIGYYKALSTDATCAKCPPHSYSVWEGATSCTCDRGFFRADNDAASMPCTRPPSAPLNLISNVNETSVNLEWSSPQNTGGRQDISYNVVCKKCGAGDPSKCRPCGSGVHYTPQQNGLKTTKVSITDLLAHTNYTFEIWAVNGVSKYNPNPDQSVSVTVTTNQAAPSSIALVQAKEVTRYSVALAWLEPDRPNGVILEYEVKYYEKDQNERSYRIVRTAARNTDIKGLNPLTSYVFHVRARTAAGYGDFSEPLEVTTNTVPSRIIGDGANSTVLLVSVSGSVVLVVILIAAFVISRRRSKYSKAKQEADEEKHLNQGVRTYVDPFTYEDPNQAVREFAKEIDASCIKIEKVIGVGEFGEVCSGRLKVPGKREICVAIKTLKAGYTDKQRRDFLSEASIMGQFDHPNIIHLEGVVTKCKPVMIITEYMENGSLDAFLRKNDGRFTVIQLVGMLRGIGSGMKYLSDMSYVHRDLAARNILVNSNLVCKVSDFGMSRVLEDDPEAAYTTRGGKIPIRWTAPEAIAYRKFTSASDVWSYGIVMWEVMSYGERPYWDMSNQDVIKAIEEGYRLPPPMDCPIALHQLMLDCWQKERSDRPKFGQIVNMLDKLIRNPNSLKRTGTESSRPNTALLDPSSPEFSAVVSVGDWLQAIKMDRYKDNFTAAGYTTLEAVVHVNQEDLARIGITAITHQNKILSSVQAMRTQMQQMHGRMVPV

Row | Compound | Kd [1] | Kd (Ephrin type-A receptor 4) | Kd [2] | Kd [3] | Kd (Deoxycytidine kinase) | Kd [4] | Kd [5] | Kd (Actin-related protein 2) | Kd (Adenosine kinase) | Kd [6]
1 | C[C@@H](Oc1cc(C(=O)Nc2ccc(C(=O)N3CCN(C)CC3)cc2)nnc1N)c1c(Cl)ccc(F)c1Cl | > 30 µM (inactive) | > 30 µM (inactive) | > 30 µM (inactive) | > 30 µM (inactive) | > 30 µM (inactive) | > 30 µM (inactive) | > 30 µM (inactive) |  |  | 
2 | C[C@H]1CNCCCN1S(=O)(=O)c1cccc2cncc(F)c12 | > 30 µM (inactive) | > 30 µM (inactive) | > 30 µM (inactive) | > 30 µM (inactive) | > 30 µM (inactive) |  | > 30 µM (inactive) | > 30 µM (inactive) | > 30 µM (inactive) | 
3 | CC(=O)c1cnc2ccc(-c3cc(Cl)c(O)c(Cl)c3)nc2c1N[C@H]1CC[C@H](CN(C)C)CC1 | 0.515 µM (active) |  | 0.01 µM | 1.09 µM (active) | > 30 µM (inactive) | 0.09 µM (active) | > 30 µM (inactive) | > 30 µM (inactive) | > 30 µM (inactive) | > 30 µM (inactive)
4 | CCNC(=O)C#Cc1ccc2c(c1)NC(=O)/C2=C(\Nc1ccc(CN(C)C)cc1)c1ccccc1 | > 30 µM (inactive) | > 30 µM (inactive) | > 30 µM (inactive) | 3.48 µM (active) | > 30 µM (inactive) | > 30 µM (inactive) | > 30 µM (inactive) | > 30 µM (inactive) | > 30 µM (inactive) | 
5 | COc1cc(Nc2ncc3c(n2)-c2ccc(Cl)cc2C(c2c(F)cccc2OC)=NC3)ccc1C(=O)O [ALISERTIB] |  |  | > 30 µM (inactive) | > 30 µM (inactive) | > 30 µM (inactive) | > 30 µM (inactive) | > 30 µM (inactive) | > 30 µM (inactive) | > 30 µM (inactive) | 
6 | O=C(Nc1c[nH]nc1-c1nc2cc(CN3CCOCC3)ccc2[nH]1)NC1CC1 [AT-9283] |  | 43.9 µM (active) | > 30 µM (inactive) | > 30 µM (inactive) | > 30 µM (inactive) | > 30 µM (inactive) | > 30 µM (inactive) | > 30 µM (inactive) | > 30 µM (inactive) | > 30 µM (inactive)
7 | CNC(=O)c1ccccc1Sc1ccc2c(/C=C/c3ccccn3)n[nH]c2c1 [AXITINIB] |  |  |  | 6.84 µM (active) | > 30 µM (inactive) |  | > 30 µM (inactive) | > 30 µM (inactive) | > 30 µM (inactive) | 
8 | CC(C)(C)c1nc(-c2cccc(NS(=O)(=O)c3c(F)cccc3F)c2F)c(-c2ccnc(N)n2)s1 [DABRAFENIB] | > 30 µM (inactive) | > 30 µM (inactive) | > 30 µM (inactive) | > 30 µM (inactive) | > 30 µM (inactive) | > 30 µM (inactive) | > 30 µM (inactive) | > 30 µM (inactive) | > 30 µM (inactive) | 
9 | Cn1cc(C2=C(c3cn(C4CCN(Cc5ccccn5)CC4)c4ccccc34)C(=O)NC2=O)c2ccccc21 [ENZASTAURIN] |  |  |  | > 30 µM (inactive) | > 30 µM (inactive) |  | > 30 µM (inactive) | > 30 µM (inactive) | > 30 µM (inactive) | 
10 | C[C@@H](Oc1cc(-n2cnc3ccc(CN4CCN(C)CC4)cc32)sc1C(N)=O)c1ccccc1C(F)(F)F [GSK-461364] |  |  |  | > 30 µM (inactive) | > 30 µM (inactive) |  | > 30 µM (inactive) | > 30 µM (inactive) | 2.51 µM (active) | 
11 | O=C(Nc1cc(C(F)(F)F)cc(C(F)(F)F)c1)c1cc(Cl)ccc1O [IMD-0354] | > 30 µM (inactive) | > 30 µM (inactive) | > 30 µM (inactive) | > 30 µM (inactive) | > 30 µM (inactive) | > 30 µM (inactive) | > 30 µM (inactive) | > 30 µM (inactive) | > 30 µM (inactive) | 
12 | NC1(c2ccc(-c3nc4ccn5c(=O)[nH]nc5c4cc3-c3ccccc3)cc2)CCC1 [MK-2206] | > 30 µM (inactive) | > 30 µM (inactive) | > 30 µM (inactive) | 1.07 µM (active) | > 30 µM (inactive) | > 30 µM (inactive) | > 30 µM (inactive) | > 30 µM (inactive) | > 30 µM (inactive) | 
13 | Cc1[nH]c(/C=C2\C(=O)Nc3ccccc32)c(C)c1CCC(=O)O [ORANTINIB] |  | > 30 µM (inactive) | > 30 µM (inactive) | > 30 µM (inactive) | > 30 µM (inactive) | > 30 µM (inactive) | > 30 µM (inactive) | > 30 µM (inactive) | > 30 µM (inactive) | 
14 | NC(=O)c1c(OCc2c(F)cc(Br)cc2F)nsc1NC(=O)NCCCCN1CCCC1 [OSI-632] |  | > 30 µM (inactive) | > 30 µM (inactive) | > 30 µM (inactive) | > 30 µM (inactive) | > 30 µM (inactive) | > 30 µM (inactive) | > 30 µM (inactive) | > 30 µM (inactive) | 
15 | Cc1nc(Nc2n[nH]c3c2CN(C(=O)N[C@H](CN(C)C)c2ccccc2)C3(C)C)c2sccc2n1 [PF-03758309] |  | > 30 µM (inactive) | > 30 µM (inactive) | > 30 µM (inactive) | > 30 µM (inactive) | > 30 µM (inactive) | > 30 µM (inactive) | > 30 µM (inactive) | > 30 µM (inactive) | > 30 µM (inactive)
16 | CC(=O)NCC(=O)N1[C@@H]2CC[C@H]1c1ccc(Nc3ncc(C(F)(F)F)c(NC4CCC4)n3)cc12 [PF-03814735] |  | > 30 µM (inactive) | 2.05 µM (active) | > 30 µM (inactive) | > 30 µM (inactive) | > 30 µM (inactive) | > 30 µM (inactive) | > 30 µM (inactive) | > 30 µM (inactive) | 
17 | O=C(NOCCO)c1cc(CN2OCCCC2=O)c(F)c(F)c1Nc1ccc(I)cc1F [RO-4987655] |  |  |  | > 30 µM (inactive) | > 30 µM (inactive) |  | > 30 µM (inactive) | > 30 µM (inactive) |  | 
18 | N#CC[C@H](C1CCCC1)n1cc(-c2ncnc3[nH]ccc23)cn1 [RUXOLITINIB] |  |  |  | > 30 µM (inactive) | > 30 µM (inactive) |  | > 30 µM (inactive) | > 30 µM (inactive) | > 30 µM (inactive) | 
19 | Cn1ncc(Cl)c1-c1cc(C(=O)N[C@H](CN)Cc2ccc(F)c(F)c2)oc1Cl [UPROSERTIB] | > 30 µM (inactive) | > 30 µM (inactive) | > 30 µM (inactive) | > 30 µM (inactive) | > 30 µM (inactive) | > 30 µM (inactive) | > 30 µM (inactive) |  | > 30 µM (inactive) | 
